# Reference: US20070141619A1, “DRUG RESISTANCE-ASSOCIATED GENE AND USE THEREOF” (BANYU PHARMACEUTICAL CO., Ltd., priority 2000, published 2007)
# Entries after “also recorded” stand apart in the source; their conditions may differ.
# Columns and labels:
# [1] = system: PC13; assay: SRB drug sensitivity, PC-13 parental cells; format: cell-based; details: Homo sapiens, 72 hours with agent
# [2] = system: MCF-7/T8; assay: SRB drug sensitivity, MCF-7 with introduced ABCG2-482T; format: cell-based, human; details: MCF-7/T8 (ABCG2-482T)
# Protocol: (§1) The full length human ABCG2 cDNA of the present invention prepared in Example 5 was inserted into a plasmid for expression in mammalian cells, followed by transfection of human breast cancer cells, MCF-7 cells, with the ABCG2 expression plasmid using Effectene Transfection Reagent (QIAGEN). Likewise, human breast cancer cells, MCF-7 cells, were transfected with a plasmid including the ABCG2-482T cDNA prepared in Example 10. The experiments were carried out according to an attached procedural manual. As a control experiment, the MCF-7 cells were also transfected with vector alone. The three experiments were conducted simultaneously. Two days from the transfection, the original media were replaced with selective media containing 900 μg/ml of Geneticin (GIBCO BRL). By culture over a prolonged term under this condition, stable transfectant clones with introduced plasmid were selected. Two to three weeks from the transfection, emerging colonies were picked and the expression of ABCG2 in the cells was examined by Northern Blot analysis. Northern Blot analysis was performed as described in Example 4: 8 μg of total RNA prepared from each clone using RNeasy mini kit (QIAGEN) was separated on a formaldehyde denatured agarose gel, followed by analysis using the human ABCG2 cDNA fragment of the present invention as a probe.
# (§2) The drug sensitivity of the stable transfectant clones which were established from MCF-7 cells with introduced ABCG2- or ABCG2-482T-expression plasmid, was measured using SRB method as described in Example 2 and the sensitivity of each transfectant to drugs was shown as a relative resistance to the cells with introduced vector alone (FIG. 6).
# [3] = system: MCF-7 cells expressing introduced BCRP; details: report of Doyle et al. 1998; cited from earlier work
# [4] = system: PC13/NR13; assay: SRB drug sensitivity, Compound-A-resistant PC-13/NR13; format: cell-based, human
# [5] = system: LY/NR2; assay: SRB drug sensitivity, Compound-A-resistant LY/NR2; format: cell-based, mouse
# Source text: An emerging colony was isolated as described above and designated as LY/NR2.
# [6] = system: PC-13/Vector; assay: SRB drug sensitivity, PC-13 transfected with vector alone; format: cell-based; details: Homo sapiens, average ± standard error of three independent experiments
# Protocol: (§3) Test cells in the logarithmic growth phase were dispensed into wells of 96-well plate at 1×10^3 cells/well. After subculture for 24 hours in a CO2 incubator, a serial diluted agent was added to each well. After further incubation for 72 hours, the cells were fixed with trichloroacetic acid (TCA) and the proteins in the cells were stained by 0.4% sulforhodamine B solution. The samples were eluted by 10 mM Tris-HCl for 1 hour, and each well was measured at 560 nm with a 450 nm reference, by a SPECTRAmax 250 plate reader (Molecular Devices Corp.).
# (§4) PC-13 cells were transfected with the ABCG2 expression plasmids using Effectene Transfection Reagent (QIAGEN). The experiment was performed according to the attached procedural manual. As a control experiment, other PC-13 cells were transfected with vector alone without the ABCG2 sequence. The two experiments were conducted simultaneously. Two days after the transfection, the original media were replaced with selection media containing 0.2 mg/ml of Geneticin (GIBCO BRL). By culture for a long time under this condition, stable transfectant clones with the introduced plasmids were selected. Two weeks from the transfection, emerging colonies were picked and expression of ABCG2 in the cells was examined by Northern Blot analysis.
# [7] = system: LY/NR1; assay: SRB drug sensitivity, Compound-A-resistant LY/NR1; format: cell-based, mouse
# Source text: A colony that grew under these conditions was isolated using a cloning ring (Asahi Techno Glass Corporation) and designated as LY/NR1.
# [8] = system: LY; assay: SRB drug sensitivity, LY parental fibroblasts; format: cell-based; details: Mus musculus, Fibroblast, 72 hours with agent
# [9] = system: PC-13 cell lines with introduced ABCG2; assay: SRB drug sensitivity, PC-13 cell lines with introduced ABCG2 (stated jointly); format: cell-based, human; details: PC-13 cell lines with introduced ABCG2, versus vector alone
# Protocol: as §3, §4
# [10] = system: MCF-7/R7; assay: SRB drug sensitivity, MCF-7 with introduced ABCG2 of the present invention; format: cell-based, human; details: MCF-7/R7 (ABCG2 of the present invention), FIG. 6
# Protocol: as §1, §2
# [11] = system: ABCG2; assay: SRB drug sensitivity, PC-13 transfected with ABCG2 (clone 3); format: cell-based, human; details: human; PC-13/ABCG2-3; average ± standard error of three independent experiments
# Protocol: as §3, §4
# [12] = system: PC-13/ABCG2-3; assay: as above; format: cell-based, human
# Protocol: as §3, §4
# [13] = system: MCF-7/T8; assay: Mitoxantrone accumulation by flow cytometry in MCF-7/T8; format: cell-based, human; details: 20 μM Mitoxantrone, 90 min, FIG. 7-(b)
# Protocol: (§5) The amount of accumulation of Mitoxantrone in the MCF-7 stable transfectants with introduced ABCG2 of the present invention or ABCG2-482T was measured as follows.
# (§6) Cells seeded at 1.0×10^6 cells/well in a 6-well culture plate were incubated for overnight. The next day, the cells in a fresh medium containing 20 μM Mitoxantrone were cultured at 37° C. for 90 min in a CO2 incubator to incorporate the compound into the cells. After a lapse of 90 min, the cells were rapidly chilled on ice, washed once with PBS, detached using 2.5% trypsin. The lysate was centrifuged at 400×g at 4° C. for 3 min to collect the cells. The collected cells were suspended in Hank's Balanced Salt Solutions containing 1% BSA and subjected to fluorimetry of the compound using a flow cytometer, Epics Elite (Beckman Coulter, Inc.). The value was indicated as Intracellular Accumulation (FIG. 7-(b)).
# [14] = system: HCT116/NR1; assay: SRB drug sensitivity, Compound-A-resistant HCT116/NR1; format: cell-based, human
# Source text: An emerging colony was isolated and designated as HCT116/NR1.
# [15] = system: HeLa#7; assay: SRB drug sensitivity, spontaneously resistant HeLa#7; format: cell-based, human
# [16] = system: ABCG2; assay: SRB drug sensitivity, PC-13 transfected with ABCG2 (clone 2); format: cell-based, human; details: human; PC-13/ABCG2-2; average ± standard error of three independent experiments
# Protocol: as §3, §4
# [17] = system: PC-13/ABCG2-2; assay: as above; format: cell-based, human
# Protocol: as §3, §4
# [18] = system: HeLaS3; assay: SRB drug sensitivity, HeLaS3 (Compound-A-sensitive); format: cell-based; details: Homo sapiens, HeLa S3, 72 hours with agent
# [19] = system: HCT116; assay: SRB drug sensitivity, HCT116 parental cells; format: cell-based; details: Homo sapiens, HCT-116, 72 hours with agent
# [20] = system: MCF-7/R7; assay: Mitoxantrone accumulation by flow cytometry in MCF-7/R7; format: cell-based, human; details: 20 μM Mitoxantrone, 90 min, FIG. 7-(b)
# Protocol: as §5, §6
# [21] = system: MCF-7/T8; assay: Rhodamine accumulation by flow cytometry in MCF-7/T8; format: cell-based, human; details: 5 μM Rhodamine, 30 min, FIG. 7-(c)
# Protocol: (§7) The next day, the cells in a fresh medium containing 5 μM Rhodamine were cultured at 37° C. for 30 min in a CO2 incubator to incorporate the compound into the cells. After a lapse of 30 min, the cells were rapidly chilled on ice, washed once with PBS, detached using 2.5% trypsin. […] The collected cells were suspended in Hank's Balanced Salt Solutions with 1% BSA and subjected to fluorometry of the compound using a flow cytometer, FACSCalibur (Becton Dickinson and Company). The value was indicated as Intracellular Accumulation (FIG. 7-(c)).
# [22] = system: MCF-7/R7; assay: Rhodamine accumulation by flow cytometry in MCF-7/R7; format: cell-based, human; details: 5 μM Rhodamine, 30 min, FIG. 7-(c)
# Protocol: as §7
compound,measurement,setting,value
O=C1c2c(O)ccc(O)c2C(=O)c2c(NCCNCCO)ccc(NCCNCCO)c21 [Mitoxantrone],IC50,[1],33 nM
same,relative resistance to the cells with introduced vector alone,[2]; FIG. 6,25 fold
same,relative resistance to the cells with introduced vector alone,"[2]; FIG. 6, listed as mitoxantrone",showed resistance
same,resistance,[3],30 fold
same,IC50,"[4]; Homo sapiens, PC-13, PC13/NR13, SRB, 72 hours with agent",160 nM
same,RR: Relative Resistance,[4]; IC50 PC13/NR13 divided by IC50 PC13,4.9
same,RR: Relative Resistance,[5]; IC50 LY/NR2 divided by IC50 LY,17
same,IC50,"[5]; Mus musculus, LY/NR2, SRB, 72 hours with agent",57 nM
same,IC50,[6],52 ± 21 nM
same,RR: Relative Resistance,[7]; IC50 LY/NR1 divided by IC50 LY,1.5
same,IC50,"[7]; Mus musculus, LY/NR1, SRB, 72 hours with agent",7.1 nM
same,IC50,[8],3.3 nM
same,resistance of cells in which ABCG2 was forcedly expressed,[9],did not display remarkable resistance; also recorded: not resistant
same,relative resistance to the cells with introduced vector alone,[10],3.8 fold
same,IC50 at 72 h,[11],31 ± 18 nM
same,Rel. Res. (relative resistance),[12]; IC50 PC-13/ABCG2-3 divided by IC50 of vector cells,0.60
same,resistance compared to the PC-13 cell with introduced vector alone,"[12]; PC-13/ABCG2-3, Example 8",0.60 fold
same,"Intracellular Accumulation, of that in the cell with introduced vector alone",[13],about 20%
same,IC50,"[14]; Homo sapiens, HCT-116, HCT116/NR1, SRB, 72 hours with agent",67 nM
same,RR: Relative Resistance,[14]; IC50 HCT116/NR1 divided by IC50 HCT116,9.6
same,IC50,"[15]; Homo sapiens, HeLa#7, SRB, 72 hours with agent",27 nM
same,RR: Relative Resistance,[15]; IC50 HeLa#7 divided by IC50 HeLaS3,6.1
same,IC50 at 72 h,[16],22 ± 8 nM
same,Rel. Res. (relative resistance),[17]; IC50 PC-13/ABCG2-2 divided by IC50 of vector cells,0.42
same,resistance compared to the PC-13 cell with introduced vector alone,"[17]; PC-13/ABCG2-2, Example 8",0.42 fold
same,IC50,[18],4.4 nM
same,IC50,[19],7 nM
same,"Intracellular Accumulation, of that in the cell with introduced vector alone",[20],about 50%
Rhodamine,"Intracellular Accumulation, of that in the cell with introduced vector alone",[21],about 50%
same,Intracellular Accumulation compared with the cell with introduced vector alone,[22],almost the same level
